Measurements as given in US10705093B2, “Determination of small-molecule thiols and disulfides: protein bound cys and total cysteine as biomarkers of oxidative stress” (Bloodworks, priority 2014, dated 2020).

Experiments:
[1] = tested on: Protein-ss-Cys in plasma from a normal donor; assay: Protein-ss-Cys in plasma treated with two physiologically relevant oxidants; set-up: species or system human; conditions: 37° C. for 30 min, with increasing oxidant concentration
Method: A. Cys containing species in normal donors' plasma (n=6); B. Plasma from a nomal donor treated with hydrogen peroxide (H2O2) and hypochlorous acid (HOCl), two oxidants commonly released from activated cells and neutrophils of patients with oxidative stress. Plasma was reaction with the indicated concentration at 37° C. for 30 min and followed by methanol extraction and analysis by LC-MS/MS-MRM as described in Example 1.

Cys disulfides in plasma = assay: Cys and Cys disulfide changes in plasma from a patient with SCD before and after NAC infusion (LC-MS/MS-MRM)
[2] = tested on: NAC, Cys species and GSH in plasma/whole blood/RBC; assay: Time course of NAC, Cys containing species and GSH in plasma/whole blood from a patient with SCD before and after NAC treatment
[3] = after NAC infusion for 1 hr at 150 mg/kg vs baseline

| NAC-ss-Cys mixed disulfide in plasma (Cys disulfides in plasma; after NAC infusion for 1 hr at 150 mg/kg) | NAC level in plasma ([2]; 24 hr time point) | NAC half time ([2]; inferred from the 24 hr level) | Fraction of NAC oxidized ([2]; plasma, at 1 hr (right after NAC infusion)) | SMILES | Change of Protein-ss-Cys in plasma exposed to oxidant [1] | Change of Cystine in plasma (Cys disulfides in plasma; [3]) | Change of Protein-ss-Cys in plasma (Cys disulfides in plasma; [3]) | Change of total Cys in plasma (Cys disulfides in plasma; [3]) | Free Cys in plasma after NAC infusion (Cys disulfides in plasma; after NAC infusion for 1 hr at 150 mg/kg, baseline 7 μM) | Increase of GSH level ([2]; 24 hr time point compared to before treatment) | Increase of free Cys in the red blood cell (RBC) fraction ([2]; RBC fraction, after NAC infusion vs before) | Free Cys in the red blood cell (RBC) fraction after NAC ([2]; RBC fraction, after NAC infusion, before 2.3 μM) | Change of free Cys in plasma ([2]; after NAC infusion vs Pre) | Change of p-ss-Cys ([2]; after NAC infusion vs Pre) | Change of total small molecular weight thiol (st-Cys) ([2]; after NAC infusion vs Pre) | Free Cys in whole blood after NAC ([2]; whole blood, after NAC infusion, before 13 μM) |
| --- | --- | --- | --- | --- | --- | --- | --- | --- | --- | --- | --- | --- | --- | --- | --- | --- |
|  |  |  |  | OO [H2O2, hydrogen peroxide] | increased |  |  |  |  |  |  |  |  |  |  |  |
|  |  |  |  | OCl [HOCl, hypochlorous acid] | increased |  |  |  |  |  |  |  |  |  |  |  |
| Detection of NAC-ss-Cys | almost not detectable | short | over 50% | CC(=O)N[C@@H](CS)C(=O)O [NAC, N-Acetyl Cysteine] |  | large decrease | large decrease | no significant changes | over 170 μM | 13% | over 10 fold | 31 µM | greatly increased | decreased sharply | greatly increased | 170 µM |
